What was measured:
[1] = Bioavailability study of API and salts of API in dogs; format: in vivo, beagle dogs; conditions: single 100 mg oral dose; for AUC(0-inf) / Cmax / half-life / Tmax: beagle, dog, plasma; for AUC(0-inf) / Cmax / half-life / Tmax / Tlag: fasting; for AUC(0-inf) / Cmax / half-life: mean and sd; for Tmax / Tlag: median; for Absolute F: relative to an iv dose of 1.25 mg/kg
Description: For comparison, a microemulsion of the free base was also studied. The study was performed with 4 dogs, weighing 9-15 kg each. A crossover design with a washout period of at least 1 week was used. The dogs were given a single oral dose of 100 mg of test compound, administered under fasting conditions.

[2] = Aqueous solubility of salts in deionized water; conditions: for solubility / solubility at 48 h: deionized water, water, thermodynamic from solid; for pH: pH of the saturated aqueous solutions
[3] = Determination of solubility at 25° C.; format: physicochemical; conditions: for solubility: thermodynamic from solid; for Solid: line after Water under Solubility; for Aqueous solubility (in words): summary of Table 8
Description: Excess solids were equilibrated in each solvent for over 24 hours at 25° C.±0.1. Concentration in aqueous supernatant was measured by UV and HPLC and concentrations in organic solvents by gravimetry.

[4] = Effect of grinding on morphic properties; format: physicochemical
[5] = pH of 1% solution or suspension; format: physicochemical; conditions: In water
[6] = Polymorphism behavior: crystal modification after 24 hours equilibration; format: physicochemical
Description: A suspension of 6 mg of drug substance in 300 μl of solvent is prepared. Samples are agitated for ≧24 hour at 22° C.±2° C. The solids are collected and investigated for changes.

[7] = Stability: degradation products (DP) and appearance (color) under stress conditions; format: physicochemical; design: key to CL: A: No change of color; B: Slight discoloration; C: Medium discoloration; D: Strong discoloration; ↓: Suspension; *: Clear solution after stress test; —: no change; x: test not performed
Description: Column: Symmetry C18 (Waters), 3.5 μm, 3×150 mm
Mobile phase: A=0.1% TFA in water; B=acetonitrile
Gradient: 20 to 100% B in 10 minutes
Column temperature: 40° C.
Stability of the three salts with respect to color and degradation products were assessed under various conditions.

[8] = Intrinsic dissolution rate; format: physicochemical; conditions: 37° C.
Description: The intrinsic dissolution rate measurements were carried out in 0.5 cm^2 VanKel die assemblies and a pellet pressure of 1 ton. The dissolution was measured using a Cary 50 spectrophotometer with a stirring rate of 200 rpm. The solution medium was held at 37° C. and measurements were made at 276 nm.

[9] = Thermogravimetry / loss on drying; format: physicochemical; conditions: for Loss on drying by TG: As is; for Thermogravimetry (weight loss in %): Heating rate 20 K/min
[10] = Hygroscopicity (sorption/desorption); format: physicochemical; conditions: for Hygroscopicity: After 1 day at 80% r.h. / Hygroscopicity: After 1 day at 95% r.h.: 25° C.
Description: Sorption/desorption isotherms were measured using VTI vapor sorption device (DVS-1). Measurements were carried out at 25° C.

[11] = 0.1N HCl, 25 °C, simulated gastric fluid, read-out: Solubility (approx. at 25° C.) (HPLC)
[12] = acetonitrile, 25 °C, organic solvent or mixture, read-out: Solubility (approx. at 25° C.)
[13] = aqueous medium at pH 3, 25 °C, pH 3, aqueous buffer, read-out: Solubility (approx. at 25° C.) (HPLC)
[14] = aqueous medium at pH 4.5, 25 °C, pH 4.5, aqueous buffer, read-out: Solubility (approx. at 25° C.) (HPLC)
[15] = methanol, 25 °C, organic solvent or mixture, read-out: Solubility (approx. at 25° C.)
[16] = water, 25 °C, water, read-out: Solubility (approx. at 25° C.) (HPLC)
[17] = 0.1% solutions or suspensions, 1 week 80° C. or 50° C., Methanol
[18] = 0.1% solutions or suspensions, 1 week 80° C. or 50° C., Water
[19] = 1-2 weeks 50° C., tight container, 1% in mixture 1
[20] = 1-2 weeks 50° C., tight container, 1% in mixture 2
[21] = 1-2 weeks 50° C./75% r.h., 1% in mixture 1
[22] = 1-2 weeks 50° C./75% r.h., 1% in mixture 2
[23] = Solid stage, 1 week 80° C., tight container, Bulk (HPLC)
[24] = Solid state, 1 week 80° C./175% r.h, Bulk (HPLC)
[25] = Solid state, 1 week 80° C./, Bulk (HPLC)
[26] = Xenon light (approx. 1200 kLuxh), Bulk (HPLC)

CS(=O)(=O)O.Cn1c(Nc2ccc(C(F)(F)F)cc2)nc2cc(Oc3ccnc(-c4ncc(C(F)(F)F)[nH]4)c3)ccc21 [Mesylate, {1-methyl-5-[2-(5-trifluoromethyl-1H-imidazol-2-yl)-pyridin-4-yloxy]-1H-benzoimidazol-2-yl}-(4-trifluoromethyl-phenyl)amine methanesulfonate]
AUC(0-inf) [1]: 54400 ± 14200 ng·h/mL
Cmax [1]: 1570 ± 530 ng/mL
half-life [1]: 21.4 ± 13 h
Tmax [1]: 5 h
Tlag [1]: 0.13 h
Absolute F [1]: 23.7 ± 6.2
solubility [2]: 4 µg/mL
solubility at 48 h [2]: 774 µg/mL
pH [2]: 1.992
solubility [3, 11]: 5700 µg/mL
solubility [3, 12]: 4000 µg/mL
solubility [3, 13]: 0.5 µg/mL
solubility [3, 14]: 0.1 µg/mL
Solid [3]: No change
solubility [3, 15]: > 50000 µg/mL
Measured pH ([3]; solubility sample at pH 3): 3.6
Measured pH ([3]; solubility sample in 0.1N HCl): 1.3
Aqueous solubility (in words) [3]: significantly improves aqueous solubility at all pH levels
solubility [3, 16]: 70 µg/mL
Effect of grinding [4]: No change
pH of 1% solution or suspension [5]: 2.0
Crystal modification after 24 hours equilibration (DSC/XRPD/TG) ([6]; 2-propanol): No change
Crystal modification after 24 hours equilibration (DSC/XRPD/TG) ([6]; Acetone): No change
Crystal modification after 24 hours equilibration (DSC/XRPD/TG) ([6]; Acetonitrile): No change
Crystal modification after 24 hours equilibration (DSC/XRPD/TG) ([6]; Ethanol): No change
Crystal modification after 24 hours equilibration (DSC/XRPD/TG) ([6]; Ethyl acetate): No change
Crystal modification after 24 hours equilibration (DSC/XRPD/TG) ([6]; Methanol): No change
Crystal modification after 24 hours equilibration (DSC/XRPD/TG) ([6]; PEG400): No change
Crystal modification after 24 hours equilibration (DSC/XRPD/TG) ([6]; Water): Change
CL [7, 17]: A
DP [7, 17]: 2.7%
CL [7, 18]: A↓
DP [7, 18]: 0.5%
CL [7, 19]: A
DP [7, 19]: 0.5%
CL [7, 20]: A
DP [7, 20]: 0.6%
CL [7, 21]: A
DP [7, 21]: 2%
CL [7, 22]: A
DP [7, 22]: 1.2%
CL [7, 23]: A
DP [7, 23]: 0.5%
DP [7, 24]: 0.8%
CL [7, 25]: A
DP ([7]; Unstressed): 0.5%
CL [7, 26]: A
DP [7, 26]: 0.6%
Intrinsic dissolution rate ([8]; HCl 0.1N): 0.056 mg min^−1 cm^−2
Intrinsic dissolution rate ([8]; Water): 0.0024 mg min^−1 cm^−2
Loss on drying by TG [9]: 1.3%
Thermogravimetry (weight loss in %) [9]: 1.3%
Hygroscopicity from moisture sorption profiles (in words) [10]: hygroscopic
Hygroscopicity: After 1 day at 80% r.h. [10]: 4.0
Hygroscopicity: After 1 day at 95% r.h. [10]: 13.0

Cn1c(Nc2ccc(C(F)(F)F)cc2)nc2cc(Oc3ccnc(-c4ncc(C(F)(F)F)[nH]4)c3)ccc21.O=C(O)/C=C\C(=O)O [Maleate, {1-methyl-5-[2-(5-trifluoromethyl-1H-imidazol-2-yl)-pyridin-4-yloxy]-1H-benzoimidazol-2-yl}-(4-trifluoromethyl-phenyl)amine maleate]
AUC(0-inf) [1]: 29600 ± 5920 ng·h/mL
Cmax [1]: 1220 ± 320 ng/mL
half-life [1]: 18.8 ± 7.7 h
Tmax [1]: 4 h
Tlag [1]: 0.12 h
Absolute F [1]: 12.9 ± 2.6
solubility [2]: 17 µg/mL
solubility at 48 h [2]: 96 µg/mL
pH [2]: 2.415
solubility [3, 11]: 2300 µg/mL
solubility [3, 12]: 4700 µg/mL
solubility [3, 13]: 0.15 µg/mL
solubility [3, 14]: 0.03 µg/mL
Solid [3]: No change
solubility [3, 15]: > 50000 µg/mL
Measured pH ([3]; solubility sample at pH 3): 3.4
Measured pH ([3]; solubility sample in 0.1N HCl): 1.4
Aqueous solubility (in words) [3]: higher at low pH and lower in neutral conditions
solubility [3, 16]: 10 µg/mL
Effect of grinding [4]: No change
pH of 1% solution or suspension [5]: 2.7
Crystal modification after 24 hours equilibration (DSC/XRPD/TG) ([6]; 2-propanol): No change
Crystal modification after 24 hours equilibration (DSC/XRPD/TG) ([6]; Acetone): Change
Crystal modification after 24 hours equilibration (DSC/XRPD/TG) ([6]; Acetonitrile): Change
Crystal modification after 24 hours equilibration (DSC/XRPD/TG) ([6]; Ethanol): No change
Crystal modification after 24 hours equilibration (DSC/XRPD/TG) ([6]; Ethyl acetate): Change
Crystal modification after 24 hours equilibration (DSC/XRPD/TG) ([6]; Methanol): Change
Crystal modification after 24 hours equilibration (DSC/XRPD/TG) ([6]; PEG400): Change
Crystal modification after 24 hours equilibration (DSC/XRPD/TG) ([6]; Water): No change
CL [7, 17]: A
DP [7, 17]: 0.4%
CL [7, 18]: A↓
DP [7, 18]: 0.3%
CL [7, 19]: A
DP [7, 19]: 0.4%
CL [7, 20]: A
DP [7, 20]: 0.4%
CL [7, 21]: A
DP [7, 21]: 1.1%
CL [7, 22]: A
DP [7, 22]: 0.5%
Stability in methanol (in words) ([7]; In methanol): stable
CL [7, 23]: A
DP [7, 23]: 0.7%
DP [7, 24]: 0.4%
CL [7, 25]: A
DP ([7]; Unstressed): 0.3%
CL [7, 26]: A
DP [7, 26]: 0.3%
Intrinsic dissolution rate ([8]; HCl 0.1N): 0.03 mg min^−1 cm^−2
Intrinsic dissolution rate ([8]; Water): 0.0076 mg min^−1 cm^−2
Loss on drying by TG ([9]; listed as maleate, maleate): 0.1%
Loss on drying by TG ([9]; maleate): 0.11%
Thermogravimetry (weight loss in %) [9]: 0.11%
Hygroscopicity from moisture sorption profiles (in words) [10]: slightly hygroscopic
Hygroscopicity: After 1 day at 80% r.h. [10]: 0.8
Hygroscopicity: After 1 day at 95% r.h. [10]: 1.1

Reference: patent US8202998B2, “Salts of benzimidazolyl pyridyl ethers and formulations thereof” (Novartis AG, priority 2006, dated 2012)
